Assay results from patent publication US20080260876A1, “Garlic Extract Compositions, Uses And Preparations Thereof” (priority 2005, published 2008).

What was measured:
[1] = tested on: Podosphaera xanthii (syn. Sphaerotheca fuliginea); assay: Foliar spray on powdery mildew-infected cucumber plants; conditions: for Percentage of reduction of cucumber powdery mildew: Table 5, 1/500 (w/v) in water
Experimental: Compositions 1 to 4 (Table 1) were applied by foliar spray 7 to 10 days after the inoculation of cucumber plants with powdery mildew spores (infected with 3-4×10^4 spores/mL of Podosphaera xanthii (syn. Sphaerotheca fuliginea)).
Each composition was sprayed once on cucumber leaves and disease assessment was performed after 3, 6, 8 and 12 days. […] For each composition, the assay was repeated three times and the results illustrated in Table 2 represent the average of these three assays.
As previously indicated, some garlic-based compositions are described in U.S. Pat. No. 6,231,865. Particular attention is paid to Samples 1 to 4 disclosed in column 2 of this document.

Oidium neolycopersici = assay: Semi-commercial greenhouse trial, tomato powdery mildew; assay type: in vivo
Experimental: Surface-sterilized tomato seeds (cv. Trust) were sown in rock wool cubes and fertilized daily with a standard nutrient solution. Seedlings were grown for 4 wk on a greenhouse bench at 21-24° C. with a 16 h photoperiod and transplanted (at the early flower stage) into rook wool in 13.5 L plastic bags perforated on the upper face in order to insert two rock wool cubes per bag. Plants at the 12-15 leaf stage were inoculated by rubbing a piece of tomato leaf heavily infected by Oidium neolycopersici onto leaf 7. At the onset of the first powdery mildew colonies (after 7-10 days), plants were sprayed with each formulation or with sulphur (the currently applied fungicide in tomato greenhouses) while controls were sprayed with water. The treatments were arranged in a randomized complete block design with 6 plants per treatment and three replications. All treatments with the garlic compositions were repeated once a week.
The treatments included: 1) Dehydrated garlic extracts-chitosan lactate (composition 1); 2) Dehydrated garlic extracts alone (composition 2); 3) chitosan lactate alone (composition 3); 4) sulphur; 5) water; and 6) water+vegetable oil (composition 4).
Disease severity was assessed three and six days after each treatment and evaluated as percentage of leaf area covered by powdery mildew. The assessments were made on a “low” leaf level (about leaf 3), a “middle” leaf level (leaves 6 and 9) and a “high” leaf level (about leaf 12) on three leaves for each level. For each treatment, […] yield was evaluated on 3 plants per replication. Data were analyzed by analysis of variance using the SAS procedure (SAS Inst., Inc., Cary, N.C.). The LSMEANS option was used to generate the probability of difference between all the variables in the study. Single degrees of freedom orthogonal contrasts were used to compare effects of the composition vs. chitosan lactate alone, the composition vs. water or water and oil, and the composition vs. sulphur. It is of note that powdery mildew on tomato is much less aggressive than it is on cucumber.

[2] = 3 plants of tomato, cv. Trust, 14 weeks after harvest

| SMILES | Percentage of reduction of cucumber powdery mildew ([1]; 3 days) | Percentage of reduction of cucumber powdery mildew ([1]; 6 days) | Percentage of reduction of cucumber powdery mildew ([1]; 8 days) | Percentage of reduction of cucumber powdery mildew ([1]; 12 days) | Phytotoxicity on cucumber plants ([1]; days following the application) | Average fruit weight, class 1 (Oidium neolycopersici; [2]) | Total fruit yield, class 1 (Oidium neolycopersici; [2]) | Total number of fruits, class 1 (Oidium neolycopersici; [2]) | Disease incidence after 14 weeks (% of infection) (Oidium neolycopersici; percentage of leaf area covered by powdery mildew, tomato cv. Trust) | Reduction of the incidence of powdery mildew in tomato (disease control) (Oidium neolycopersici; tomato greenhouse trial) |
| --- | --- | --- | --- | --- | --- | --- | --- | --- | --- | --- |
| CCCCCCCCCCCCOS(=O)(=O)[O-].[Na+] [Sodium dodecyl sulfate] | 100% | 100% | 100% | 95% | phytoxicity developed |  |  |  |  |  |
| S1SSSSSSS1 [Sulphur] |  |  |  |  |  | 164 ± 3 g | 16.3 ± 1.1 Kg/m^2 | 100 ± 5.0 tomatos/m^2 | 0.28 ± 0.08 % of infection | ~100% |
